Experimental data: patent US20030114362A1, “Penta-or tetrapeptide binding to somatostatin receptors and the use of the same” (Novaspin Biotech GmbH, priority 2001, published 2003)
Starred links: 1 amine or outer side, 2 acyl side, 3 side chain; linkers in the order of their positions; H or OH if unused. Non-standard residues stand in square brackets, D forms with d. Residues, ends and D or L forms follow the SMILES beside them. ξ: configuration not given here. *: point of attachment. X3 = CC1(C)O[C@H]2O[C@H](C(=O)[*:2])[C@@H](N[*:1])[C@H]2O1; X1 = CC1(C)OC2[C@H](OC(C(O)C(=O)[*:2])[C@H]2N[*:1])O1; X2 = CC1(C)OC2[C@H](O[C@H](C(=O)[*:2])[C@H]2N[*:1])O1; Bip = N[C@@H](Cc1ccc(-c2ccccc2)cc1)C(=O)O; Trt = c1ccc(C(c2ccccc2)(c2ccccc2)*)cc1; Bta = N[C@@H](Cc1csc2ccccc12)C(=O)O; ξW = NC(Cc1c[nH]c2ccccc12)C(=O)O; Thr(3ξ) = CC(O)[C@H](N)C(=O)O; ξY = NC(Cc1ccc(O)cc1)C(=O)O; Nle = CCCC[C@H](N)C(=O)O; ξF = NC(Cc1ccccc1)C(=O)O; ξK = NCCCCC(N)C(=O)O; Bn = c1ccc(C*)cc1

What was measured:
[1] = tested on: A431 and Panc-1; conditions: number of cell deaths after 6 h of incubation
Protocol: The Compounds shown below were tested on two cell-lines, A431 (A. T. C. C. reference No. CRL-1555, c.f. American Type Culture Collection, http://phage.atcc.org/cgi-bin/searchengine/longview.cgi?view=ce,663682,CRL-1555&text=a-431, 2001, pp. http://phage.atcc.org/cgi-bin/searchengine/longview.cgi?view-ce,663682,CRL-661555&text=a-663431; http://phage.atcc.org/cgi-bin/searchengine/longview.cgi?view=ce,663682,CRL-661555&text=a-663431) (an epidermoid cancer) and Panc-1 (A.T.C.C. reference No. CRL-1469, c.f. American Type Culture Collection, http://phage.atcc.org/cgi-bin/searchengine/longview.egi?view=ce,609764,CRL-1469&text=panc-1) (a well differentiated pancreatic adenocarcinoma), both of human origin, using the MTT (Carmichael J et al. Cancer Res. 47(4): pp. 936-42, 1987.) and MB (Oliver M H, Harrison N K, Bishop J E, Cole P J, Laurent G J; J Cell Sci 1989 March;92 ( Pt 3):513-8) assays. [drawing 25]
Each compound was tested under […]: 6 h (to exclude necrosis) and 48 h to see inhibition of proliferation and apoptosis.

[2] = tested on: A431 (an epidermoid cancer); conditions: A431, MB and MTT assays
Protocol: (§3) Each compound was tested under 4 conditions: 6 h (to exclude necrosis) and 48 h to see inhibition of proliferation and apoptosis.

[3] = tested on: Panc-1 (a well differentiated pancreatic adenocarcinoma); conditions: Panc-1, MB and MTT assays
Protocol: as §3

[4] = tested on: Substance P release from sensory nerve terminals; assay: Release of Substance P in vitro from electrically stimulated rat tracheae (RIA); conditions: for Substance P release, stim. / inhibition of Substance P release / Substance P release, post stim. / Substance P release, pre stim.: 500 nmol; for Substance P release, stim.: electrical field stimulation 40 V, 0.1 ms, 10 Hz, 120 s; for Substance P release, stim. / Substance P release, post stim. / Substance P release, pre stim.: released amount of peptide per tissue weight; for inhibition of Substance P release: electrically evoked release; for Substance P release, post stim.: poststimulated fraction; for Substance P release, pre stim.: prestimulated fraction; for Substance P release evoked by electrical stimulation of sensory nerve terminals (in words): compared with TT-232
Protocol: Effect of TG, SGA, TR, and TT-232 on the Release of Substance P in vitro Methods:
After exsanguination the tracheae of 2-2 female Wistar rats were removed and perfused (1 ml min^−1) in an organ bath (1.8 ml) at 37° C. for 60 min with oxygenated (95% O2 and 5% CO2) Krebs solution of the following composition (in mM): NaCl 119, NaHCO3 25, KH2PO4 1.2, MgSO4 1.5, KCl 4.7, CaCl2 2.5, glucose 11. After stopping the flow the solution was changed 3 times for 8 min (prestimulated—stimulated—poststimulated). Electrical field stimulation (40 V, 0.1 ms, 10 Hz, 120 s) was performed to induce release of sensory neuropeptides from the tissue pieces in the presence or absence of SGTG, SGA, SGTH, or TT-232 (500-500 nM). The fractions were collected in ice-cold tubes and the wet weight of the tracheae were measured. Concentration of SP was determined by specific radioimmunoassay (RIA) methods developed in our laboratory (Németh, J., Oroszi, G., Thán, M., Helyes, Zs., Pintér, E., Farkas, B. and Szolcsányi, J.: Substance P radioimmunoassay for quantitative characterization of sensory neurotransmitter release. Neurobiology, 7, 437-444, 1999) and was expressed as the released amount of peptide per tissue weight.

[5] = tested on: multi-drug resistant cell line Klon 2 (10×80); assay: XTT/PMS cytotoxicity assay, multidrug resistant hepatoma cells; assay type: cell-based, rat; conditions: 72 hrs incubation
Description: (§1) Rat hepatoma cells were cultivated in a F 12 medium (GibcoBRL), to which 5% of foetal calf serum had been added, in a atmosphere saturated with humidity (>95%) and having a CO2 content of 8% in air. The cell line named “Klon 2” was isolated by Venetianer et al. (Cytogentc.Cell.Genet 28:280-283, 1980). The cell line 2 (10×80)T1 is a sub-clone of Klon 2 having a moderate multi-drug resistance 8 (Pirity, Hever-Szabo and Venetianer, Cytotechnology 19:207-214, 1996). The degree of resistance of cell line 2 (10×80) was determined by a Niagara blue exclusion test, the cells being exposed to different concentrations of the following cytostatic agents for 72 hrs.
(§2) The XTT/PMS Assay (Scuderio et al., Cancer Res. 48:4827-4833, 1988; Roehm et al., J.Immun.Methods 142:257-265, 1991) was utilised to determine the cytotoxicity of the compounds. For this purpose, the viability of the sensitive cell line Klon 2 was tested in comparison with that of the multi-drug resistant cell line Klon 2 (10×80). An identical number of cells was applied to a 96 cell culture plate. […] The cell viability was determined by triple determination for each concentration by means of the XTT/PMS dye test (Scuderio et al., Cancer Res. 48:4827-4833, 1988; Roehm et al., J.Immun.Methods 142:257-265,1991). […]

[6] = tested on: sensitive cell line Klon 2; assay: XTT/PMS cytotoxicity assay, drug sensitive hepatoma cells; assay type: cell-based, rat; conditions: Klon 2, XTT/PMS, 72 hrs incubation
Description: as §1, §2

Molecule	Necrosis [1]	IC50 [2] [µM]	IC50 [3] [µM]	further results
c[-D-Trp-Lys-Bpa-Z1-Phe-] [SGnc 14]	almost none	~100	~100	
C[C@@H](OC(c1ccccc1)(c1ccccc1)c1ccccc1)C1NC(=O)[C@H](CCCCN)NC(=O)[C@H](Cc2csc3ccccc23)NC(=O)[C@H](Cc2ccc(O)cc2)NC(=O)[C@H]2O[C@@H]3OC(C)(C)OC3[C@@H]2NC1=O (some centres unmarked) [SGnc 8]	some	50	40	
C[C@@H](OC(c1ccccc1)(c1ccccc1)c1ccccc1)C1NC(=O)[C@H](CCCCN)NC(=O)[C@H](Cc2ccc3ccccc3c2)NC(=O)[C@H](Cc2ccc(O)cc2)NC(=O)[C@H]2O[C@@H]3OC(C)(C)OC3[C@@H]2NC1=O (some centres unmarked) [SGnc 10]	some	55	40	
CC(OC(c1ccccc1)(c1ccccc1)c1ccccc1)[C@@H]1NC(=O)C(CCCCN)NC(=O)[C@@H](Cc2csc3ccccc23)NC(=O)C(Cc2ccc(O)cc2)NC(=O)[C@H]2O[C@@H]3OC(C)(C)OC3[C@@H]2NC1=O (some centres unmarked) [SGnc 50]	none	~38	~38	
CC1(C)OC2[C@H](O[C@@H]3C(=O)NC(Cc4ccc(O)cc4)C(=O)N[C@@H](Cc4csc5ccccc45)C(=O)NC(CCCCN)C(=O)N[C@@H](Cc4ccc(OCc5ccccc5)cc4)C(=O)N[C@@H]23)O1 (some centres unmarked) [SGnc 51] (cyclo([Bta][ξK]Y(Bn)[X2][ξY]))	almost none	35	35	
CC(OC(c1ccccc1)(c1ccccc1)c1ccccc1)[C@@H]1NC(=O)C(CCCCN)NC(=O)[C@@H](Cc2c[nH]c3ccccc23)NC(=O)C(Cc2ccccc2)NC(=O)C(O)C2O[C@@H]3OC(C)(C)OC3[C@@H]2NC1=O (stereo partly drawn) [SGnc 18, c[-D-Trp-Lys-Thr(OTrt)-Z2-Phe-]] (cyclo([Thr(3ξ)](Trt)[X1][ξF][dW][ξK]))	some	~50	~50	
CC1(C)OC2[C@H](O[C@@H]3C(=O)N[C@@H](Cc4ccccc4)C(=O)N[C@@H](Cc4c[nH]c5ccccc45)C(=O)N[C@@H](CCCCN)C(=O)N[C@@H]23)O1 (stereo partly drawn) [SGA, cyclo[-Phe-Trp-Lys-Z1-]]				Substance P release, stim. [4]: 4.81; inhibition of Substance P release [4]: 28.4%; Substance P release, post stim. [4]: 2.07; Substance P release, pre stim. [4]: 1.81; Substance P release evoked by electrical stimulation of sensory nerve terminals (in words) [4]: inhibited
CCCC[C@@H]1NC(=O)[C@@H](Cc2c[nH]c3ccccc23)NC(=O)[C@H](Cc2ccc(O)cc2)NC(=O)[C@H]2O[C@@H]3OC(C)(C)O[C@@H]3[C@@H]2NC(=O)[C@H]([C@@H](C)OC(c2ccccc2)(c2ccccc2)c2ccccc2)NC1=O [SGnc 7, cyclo[-D-Trp-Nle-Thr(OTrt)-Z1-Tyr-]] (cyclo([Nle]T(Trt)[X3]Y[dW]))	none	10	10	
c[-D-Trp-Lys-1-Nal-Z1-Phe-] [SGnc 15]	some	~110	~110	
c[-Tyr-Trp-Lys-Thr-Z1-]				IC50 [5]: 47 µM; IC50 [6]: 75 µM
CC(OCc1ccccc1)[C@@H]1NC(=O)C(CCCCN)NC(=O)C(Cc2c[nH]c3ccccc23)NC(=O)C(Cc2ccc(O)cc2)NC(=O)[C@H]2O[C@@H]3OC(C)(C)OC3[C@@H]2NC1=O (stereo partly drawn) [SGnc 38, cyclo[-D-Trp-Lys-Thr(OBzl)-Z1-Tyr-]] (cyclo([Thr(3ξ)](Bn)[X2][ξY][ξW][ξK]))	some	~50	~50	
CC1(C)OC2[C@H](OC3C(O)C(=O)NC(Cc4ccccc4)C(=O)N[C@H](Cc4c[nH]c5ccccc45)C(=O)NC(CCCCN)C(=O)N[C@@H](Cc4ccc(-c5ccccc5)cc4)C(=O)N[C@H]32)O1 (stereo partly drawn) [SGnc 20, cyclo[-D-Trp-Lys-Thr(OTrt)-Z2-Phe-]] (cyclo([Bip][X1][ξF][dW][ξK]))	some	~60	~60	
c[-D-Trp-Lys-Thr(OTrt)-Z1-Tyr-]				IC50 [5]: 25 µM; IC50 [6]: 31 µM; Substance P release, stim. [4]: 5.14; inhibition of Substance P release [4]: 19.3%; Substance P release, post stim. [4]: 2.31; Substance P release, pre stim. [4]: 1.76; Substance P release evoked by electrical stimulation of sensory nerve terminals (in words) [4]: inhibited
